According to patent publication US7344706B2, “UV absorber compositions comprising a hydroxyphenyltriazine compound” (Ciba Specialty Chemicals Corp., priority 2002, dated 2008):

Legend:
[1] = Spectral properties (UV absorption); type: physicochemical
Source text: Spectral Properties: [table]

[2] = Solubility in cosmetic oils; type: physicochemical; details: percentages refer to weight

With CCCCC(CC)COc1ccc(-c2nc(-c3ccc(OC)cc3)nc(-c3ccc(OCC(CC)CCCC)cc3OCC(CC)CCCC)n2)c(O)c1 (centres unmarked) [Example 1, 2-((2,4-(2-ethyl-hexyloxy)-phenyl))-4-((2-hydroxy-4-(2-ethyl-hexyloxy)-phenyl))-6-(4-methoxyphenyl)-(1,3,5)-triazine] as the compound, how does the ε [1] read?
The ε was 50443 liters/(mol/cm).

What about the λmax [1] of the same compound?
The λmax was 322 nm.

What about the “E [1%, 1 cm] (in dioxane)” value ([1]; in dioxane) of the same compound?
The value was 681.62.

What about the “solubility in di-C12-C13alkylmalates” value ([2]; solvent di-C12-C13alkylmalates) of the same compound?
Its value is greater than 25%.

And the solubility in glyceryl-trioctanoate ([2]; solvent glyceryl-trioctanoate)?
Its solubility in glyceryl-trioctanoate is greater than 30%.
